{"source": "patent US9499486B2", "about": "“Kinase inhibitor” (RESPIVERT LIMITED, priority 2014, dated 2016)", "key": {"[1]": {"molecular_target": "p38 MAPKα (Homo sapiens (Human), UniProt Q16539)", "sequence (Q16539 whole entry, looked up)": "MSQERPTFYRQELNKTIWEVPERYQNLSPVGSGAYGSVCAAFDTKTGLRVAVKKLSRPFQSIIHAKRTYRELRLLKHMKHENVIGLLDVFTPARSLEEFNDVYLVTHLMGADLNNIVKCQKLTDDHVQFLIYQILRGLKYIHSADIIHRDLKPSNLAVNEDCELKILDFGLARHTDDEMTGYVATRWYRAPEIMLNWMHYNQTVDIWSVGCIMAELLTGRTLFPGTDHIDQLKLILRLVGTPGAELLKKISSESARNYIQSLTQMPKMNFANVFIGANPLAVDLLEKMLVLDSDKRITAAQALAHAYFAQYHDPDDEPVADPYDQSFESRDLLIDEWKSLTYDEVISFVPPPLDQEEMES", "assay": "KINOMEscan dissociation constant, p38 MAPKα", "assay_type": "binding", "description": "(§1) These assays may be conducted by DiscoverX (formerly Ambit; San Diego, Calif.)."}, "[2]": {"molecular_target": "Syk (Homo sapiens (Human), UniProt P43405)", "assay": "KINOMEscan dissociation constant, Syk", "assay_type": "binding", "description": "as §1"}, "[3]": {"molecular_target": "c-Src (Homo sapiens (Human), UniProt P12931)", "sequence (P12931 whole entry, looked up)": "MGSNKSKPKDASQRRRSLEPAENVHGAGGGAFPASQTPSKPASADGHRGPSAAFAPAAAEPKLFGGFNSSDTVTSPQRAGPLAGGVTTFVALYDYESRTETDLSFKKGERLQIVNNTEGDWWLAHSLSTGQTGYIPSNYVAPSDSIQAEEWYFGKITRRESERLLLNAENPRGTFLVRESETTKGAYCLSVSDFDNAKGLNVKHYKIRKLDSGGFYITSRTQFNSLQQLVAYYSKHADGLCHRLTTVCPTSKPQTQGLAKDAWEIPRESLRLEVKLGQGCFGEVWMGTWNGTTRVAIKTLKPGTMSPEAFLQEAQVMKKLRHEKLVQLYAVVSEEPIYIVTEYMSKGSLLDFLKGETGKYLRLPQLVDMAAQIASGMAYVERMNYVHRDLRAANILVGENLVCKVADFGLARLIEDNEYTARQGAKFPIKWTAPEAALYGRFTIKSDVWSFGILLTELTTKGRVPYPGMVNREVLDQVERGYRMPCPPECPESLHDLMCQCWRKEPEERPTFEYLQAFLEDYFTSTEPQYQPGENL", "assay": "c-Src enzyme inhibition, Z-LYTE FRET", "assay_type": "biochemical", "description": "The relevant enzyme (3000 ng/mL or 2000 ng/mL respectively, 2.5 μL) is incubated with the test compound (either 1 μg/mL, 0.1 μg/mL, 0.01 μg/mL, or 0.001 μg/mL, 2.5 μL each) for 2 hr at RT. The FRET peptides (8 μM, 2.5 μL), and appropriate ATP solutions (2.5 μL, 800 μM for c-Src, and 60 μM ATP for Syk) are then added to the enzymes/compound mixtures and the mixture incubated for 1 hr. Development reagent (protease, 5 μL) is added for 1 hr prior to detection in a fluorescence microplate reader (Varioskan® Flash, ThermoFisher Scientific).\n(§2) In all cases, the site-specific protease cleaves non-phosphorylated peptide only and eliminates the FRET signal. Phosphorylation levels of each reaction are calculated using the ratio of coumarin emission (donor) over fluorescein emission (acceptor), for which high ratios indicate high phosphorylation and low ratios indicate low phosphorylation levels."}, "[4]": {"molecular_target": "GSK3α (Homo sapiens (Human), UniProt P49840)", "sequence (P49840 whole entry, canonical isoform)": "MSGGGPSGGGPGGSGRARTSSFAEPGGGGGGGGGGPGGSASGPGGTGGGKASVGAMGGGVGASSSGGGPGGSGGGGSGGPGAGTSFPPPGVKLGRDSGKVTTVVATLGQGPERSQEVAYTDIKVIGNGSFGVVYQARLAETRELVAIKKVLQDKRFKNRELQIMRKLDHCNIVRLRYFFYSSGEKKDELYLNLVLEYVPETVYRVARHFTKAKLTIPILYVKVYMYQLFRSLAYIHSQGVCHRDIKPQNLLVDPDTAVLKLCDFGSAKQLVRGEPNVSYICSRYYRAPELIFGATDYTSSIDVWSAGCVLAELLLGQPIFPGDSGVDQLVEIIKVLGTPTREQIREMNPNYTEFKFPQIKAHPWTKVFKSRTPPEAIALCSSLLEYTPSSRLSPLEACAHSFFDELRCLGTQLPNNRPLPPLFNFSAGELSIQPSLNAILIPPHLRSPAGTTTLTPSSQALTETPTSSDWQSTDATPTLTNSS", "assay": "GSK3α enzyme inhibition (Method 2), Z-LYTE FRET", "assay_type": "biochemical", "description": "The enzyme inhibitory activities of the compound disclosed herein are determined by FRET using synthetic peptides labelled with both donor and acceptor fluorophores (Z-LYTE, Invitrogen Ltd., Paisley, UK).\nThe inhibitory activities of the compound of the invention against the GSK 3α enzyme isoform (Invitrogen), are evaluated by determining the level of activation/phosphorylation of the target peptide. The GSK3-α protein (500 ng/mL, 2.5 μL) is mixed with the test compound (2.5 μL at either 4 μg/mL, 0.4 μg/mL, 0.04 μg/mL, or 0.004 μg/mL) for 2 hr at RT. The FRET peptide (8 μM, 2.5 μL), which is a phosphorylation target for GSK3α, and ATP (40 μM, 2.5 μL) are then added to the enzyme/compound mixture and the resulting mixture incubated for 1 hr. Development reagent (protease, 5 μL) is added for 1 hr prior to detection in a fluorescence microplate reader (Varioskan® Flash, ThermoFisher Scientific).\nas §2, with “levels. […]” for “levels.”"}, "[5]": {"test_system": "Jurkat cells", "assay": "Cell cytotoxicity assay (assay r)", "assay_type": "cell-based, human", "description": "1×10^5 Jurkat cells (immortalised human T lymphocytes) are added to the appropriate number of wells of a 96 well plate in 100 μL of media (RPMI supplemented with 10% foetal bovine serum). 1 μL of DMSO control (final concentration 1.0% v/v) or test compound (final concentration 20, 5 or 1 μg/mL) is added to the wells and incubated at 37° C., 5% CO2. After 24 hours, the plate is centrifuged at 1200 rpm for 3 minutes and the supernatant discarded. Cells are then resuspended in 150 μL (final concentration 7.5 μg/mL) of propidium iodide (PI) in PBS and incubated at 37° C., 5% CO2 for 15 minutes. After 15 minutes, cells are analysed by flow cytometry (BD accuri) using the FL3 window. The % viability is calculated as the % of cells that are PI negative in the test wells normalised to the DMSO control."}, "[6]": {"assay": "Solubility in fasted-state simulated colonic fluid (FaSSCoF)", "assay_type": "physicochemical", "description": "The solubility of the compound of the invention in FaSSCoF at pH 6.5 is determined using a modification of a previously-reported procedure (Vertzoni, M., et al. Pharm. Res. 2010, 27, 2187-2196). In place of the bile salt extract employed in the original procedure (which extract is no longer available), the modified procedure uses a mixture of sodium taurochlorate (0.15 g), glycocholic acid (0.15 g), ursodeoxycholic acid (0.05 g), cholic acid (0.05 g), and glycodeoxycholic acid (0.05 g). These five bile acids are ground together with a mortar and pestle to produce a fine white powder that is incorporated into the FaSSCoF, as outlined below.\nFaSSCoF medium: Tris(hydroxymethyl)aminomethane (Tris; 0.275 g) and maleic acid (0.44 g) are dissolved in water (35 mL) to give a solution whose pH is adjusted to 6.5 by treatment with 0.5M NaOH (ca. 12 mL). The solution is then made up to 50 mL with water. A portion of this Tris/maleate buffer solution (ca. 25 mL) is added to a 0.5 L round-bottomed flask, before being treated with 0.00565 g of the bile acid mixture described above. Solutions of phosphatidylcholine (0.0111 g) in DCM (0.15 mL) and palmitic acid (0.0013 g) in DCM (0.15 mL) are added, then the organic solvent is evaporated off under reduced pressure at 40° C. until a clear solution, with no perceptible DCM odour, is achieved. The volume of the evaporated solution is adjusted to 50 mL by addition of the remainder of Tris/maleate buffer, then BSA (0.115 g) is added, before being dissolved by gentle agitation.\nSolubility Determination: Test compounds are suspended in the pH 6.5 FaSSCoF medium to give a maximum final concentration of 2-10 mg/mL. The suspensions are equilibrated at 25° C. for 24 h, before being filtered through a glass fibre C filter. The filtrates are then diluted as appropriate for injection and quantification by HPLC with reference to a standard. Different volumes of the standard, diluted and undiluted sample solutions are injected and the solubilities are calculated using the peak areas determined by integration of the peak found at the same retention time as the principal peak in the standard injection."}, "[7]": {"assay": "Systemic pharmacokinetics and total colon tissue distribution after single oral administration", "assay_type": "in vivo, mouse", "settings": "mice, single oral administration", "description": "Studies were conducted by Sai Life Sciences (Hinjewadi, Pune, India) to investigate the systemic pharmacokinetics and total colon tissue distribution of the compound of the invention. In particular, pharmacokinetic studies were carried out in male C57BL/6 mice following a single oral administration of the compound."}, "[8]": {"test_system": "eyes of albino New Zealand White rabbits"}}, "note": "Where two headings read alike, the source gives them in different places."}
{"compound": "COc1cc(Nc2cc(Oc3ccc(NC(=O)Nc4cc(C(C)(C)C)cc(NS(C)(=O)=O)c4OC)c4ccccc34)ccn2)ccc1C(=O)O", "note": "[Example 1, 4-((4-((4-(3-(5-(tert-Butyl)-2-methoxy-3-(methylsulfonamido)phenyl)ureido)naphthalen-1-yl)oxy)pyridin-2-yl)amino)-2-methoxybenzoic acid]", "values": [{"measurement": "Kd", "setting": "[1]", "result": 2.8, "unit": "nM"}, {"measurement": "Kd", "setting": "[2]", "result": 7.1, "unit": "nM"}, {"measurement": "IC50", "setting": "[3]", "result": 14, "unit": "nM"}, {"measurement": "IC50", "setting": "[4]", "result": 115, "unit": "nM"}, {"measurement": "% Viability at 1 μg/mL", "setting": "[5]; 1 μg/mL, 24 hours", "result": 94.6, "unit": "%"}, {"measurement": "% Viability at 5 μg/mL", "setting": "[5]; 5 μg/mL, 24 hours", "result": 96.1, "unit": "%"}, {"measurement": "% Viability at 20 μg/mL", "setting": "[5]; 20 μg/mL, 24 hours", "result": 95.8, "unit": "%"}, {"measurement": "cytotoxicity compared with Reference Compound", "setting": "[5]; assay (r)", "result": "substantially less cytotoxic than the Reference Compound"}, {"measurement": "solubility at 24 h", "setting": "[6]; fasted-state simulated colonic fluid (FaSSCoF), 25 °C, fassgf or other biorelevant, thermodynamic from solid, pH 6.5, text summary, read-out: solubilities in the FaSSCoF medium at pH 6.5", "result": "> 10", "unit": "µg/mL"}, {"measurement": "solubility thermodynamic at 24 h", "setting": "[6]; fasted-state simulated colonic fluid (FaSSCoF), 25 °C, pH 6.5, fassgf or other biorelevant, thermodynamic from solid, pH 6.5, 25° C., 24 h, read-out: pH 6.5 FaSSCoF Solubility Run 3", "result": 10, "unit": "µg/mL"}, {"measurement": "pH 6.5 FaSSCoF Solubility Run 1", "setting": "[6]; pH 6.5, 25° C., 24 h", "result": 0.016, "unit": "mg/mL"}, {"measurement": "pH 6.5 FaSSCoF Solubility Run 2", "setting": "[6]; pH 6.5, 25° C., 24 h", "result": 0.018, "unit": "mg/mL"}, {"measurement": "pH 6.5 FaSSCoF Solubility Run 4", "setting": "[6]; pH 6.5, 25° C., 24 h", "result": 0.011, "unit": "mg/mL"}, {"measurement": "systemic plasma or blood exposures", "setting": "[7]", "result": "very low or negligible"}, {"measurement": "ocular reactions compared with vehicle controls", "setting": "[8]; Phase 1, one treatment day, 0.1 and 1.0 mg/mL", "result": "no differences in the frequency, severity and incidence"}, {"measurement": "local tolerability of the formulations", "setting": "[8]; Phase 1, single dosing day, 0.1 and 1.0 mg/mL", "result": "acceptable"}, {"measurement": "local tolerability of the formulations", "setting": "[8]; Phase 2, three consecutive treatment days, 0.1 and 1.0 mg/mL", "result": "acceptable without any aggravation"}, {"measurement": "effects on body weight and food consumption", "setting": "[8]; rabbits, ocular 0.1 and 1.0 mg/mL, four daily instillations", "result": "no effects on body weight, nor on food consumption"}]}
